From US20250176599A1, “FLAVOR COMPOSITION AND FOOD AND BEVERAGE” (TAKASAGO INTERNATIONAL CORPORATION, priority 2021, published 2025)

Key:
[1] = Sensory evaluation of aqueous solution III containing 1-octen-3-one 1 ppb: off-flavor intensity and masking component intensity; settings: 1-octen-3-one 1 ppb, average score 0-4
Method in brief: (§1)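 8 trained panelists; degradant in ion-exchanged water + nootkatone. Off-flavor 0–4, relative (no masker = 4, water = 0); masker flavor 0–4, absolute.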

[2] = Sensory evaluation of degradation component-added mayonnaise I (1-octen-3-ol 200 ppb); settings: average panel score
Description: (§2) To commercially available mayonnaise (“Kewpie Mayonnaise” manufactured by Kewpie Corporation), each degradation component was added to prepare degradation component-added mayonnaises I and II at the concentrations listed in Table 20. To these degradation component-added mayonnaises, oleic acid was added at the concentrations listed in Table 21 to confirm the intensity of the off-flavor (masking effect) and the intensity of the masking components (impact on the flavor of the mayonnaise itself) for each sample.
(§3) Six experienced panelists were selected to conduct a sensory evaluation similar to that of Example 1.

[3] = Sensory evaluation of aqueous solution I containing (E)-2-nonenal 1 ppb: off-flavor intensity and masking component intensity; settings: (E)-2-nonenal 1 ppb, average score 0-4
Method in brief: as §1

[4] = Overall conclusion of the sensory evaluation across aqueous solutions I to VI
Method in brief: as §1

[5] = Sensory evaluation of aqueous solution VI containing 1,5-octadien-3-ol 10 ppb: off-flavor intensity and masking component intensity; settings: aqueous solution VI, 1,5-octadien-3-ol 10 ppb, average score 0-4
Method in brief: as §1

[6] = Overall conclusion of the sensory evaluation across mayonnaises I and II
Description: as §2, §3

[7] = Sensory evaluation of aqueous solution IV containing 1,5-octadien-3-one 100 ppt: off-flavor intensity and masking component intensity; settings: aqueous solution IV, 1,5-octadien-3-one 100 ppt, average score 0-4
Method in brief: as §1

[8] = Sensory evaluation of aqueous solution V containing 1-octen-3-ol 10 ppb: off-flavor intensity and masking component intensity; settings: 1-octen-3-ol 10 ppb, average score 0-4
Method in brief: as §1

[9] = Sensory evaluation of aqueous solution II containing (E)-2-octenal 10 ppb: off-flavor intensity and masking component intensity; settings: (E)-2-octenal 10 ppb, average score 0-4
Method in brief: as §1

CCCCCCCC/C=C\CCCCCCCC(=O)O [Oleic Acid, oleic acid]
Off-Flavor Intensity ([1]; 1 ppm added): 2.8 points | Off-Flavor Intensity ([1]; 5 ppm added): 2.4 points | Off-Flavor Intensity ([1]; 10 ppb added): 3.5 points | Off-Flavor Intensity ([1]; 10 ppm added): 1.9 points | Off-Flavor Intensity ([1]; 50 ppb added): 3.4 points | Off-Flavor Intensity ([1]; 100 ppb added): 3.3 points | Off-Flavor Intensity ([1]; 500 ppb added): 2.5 points | Masking Component Intensity ([2]; 1 ppm added): 0.3 | Off-Flavor Intensity ([2]; 1 ppm added): 1.8 | Masking Component Intensity ([2]; 5 ppm added): 0.7 | Off-Flavor Intensity ([2]; 5 ppm added): 1.7 | Masking Component Intensity ([2]; 10 ppm added): 0.8 | Off-Flavor Intensity ([2]; 10 ppm added): 1.2 | Masking Component Intensity ([2]; 50 ppm added): 1.7 | Off-Flavor Intensity ([2]; 50 ppm added): 0.8 | Masking Component Intensity ([2]; 100 ppb added): 0.0 | Off-Flavor Intensity ([2]; 100 ppb added): 3.3 | Masking Component Intensity ([2]; 100 ppm added): 2.2 | Off-Flavor Intensity ([2]; 100 ppm added): 0.5 | Masking Component Intensity ([2]; 500 ppb added): 0.2 | Off-Flavor Intensity ([2]; 500 ppb added): 2.5 | Off-Flavor Intensity ([3]; 1 ppm added): 1.8 points | Off-Flavor Intensity ([3]; 5 ppm added): 1.4 points | Off-Flavor Intensity ([3]; 10 ppb added): 3.5 points | Off-Flavor Intensity ([3]; 10 ppm added): 1.3 points | Off-Flavor Intensity ([3]; 50 ppb added): 3.1 points | Off-Flavor Intensity ([3]; 100 ppb added): 2.8 points | Off-Flavor Intensity ([3]; 500 ppb added): 2.4 points | concentration that masks the off-flavor and does not affect the flavor of the food and/or beverage itself, lower limit [4]: ≥ 10 ppb | concentration that masks the off-flavor and does not affect the flavor of the food and/or beverage itself, upper limit [4]: ≤ 10 ppm | Off-Flavor Intensity ([5]; 1 ppm added): 1.3 points | Off-Flavor Intensity ([5]; 5 ppm added): 1.5 points | Off-Flavor Intensity ([5]; 10 ppb added): 2.6 points | Off-Flavor Intensity ([5]; 10 ppm added): 1.3 points | Off-Flavor Intensity ([5]; 50 ppb added): 2.4 points | Off-Flavor Intensity ([5]; 100 ppb added): 1.9 points | Off-Flavor Intensity ([5]; 500 ppb added): 1.6 points | concentration that masks the off-flavor and does not affect the flavor of the mayonnaise itself, lower limit [6]: ≥ 500 ppb | concentration that masks the off-flavor and does not affect the flavor of the mayonnaise itself, upper limit [6]: ≤ 100 ppm | Off-Flavor Intensity ([7]; 1 ppm added): 2.0 points | Off-Flavor Intensity ([7]; 5 ppm added): 1.9 points | Off-Flavor Intensity ([7]; 10 ppb added): 3.4 points | Off-Flavor Intensity ([7]; 10 ppm added): 1.5 points | Off-Flavor Intensity ([7]; 50 ppb added): 3.3 points | Off-Flavor Intensity ([7]; 100 ppb added): 2.9 points | Off-Flavor Intensity ([7]; 500 ppb added): 2.5 points | Off-Flavor Intensity ([8]; 1 ppm added): 1.9 points | Off-Flavor Intensity ([8]; 5 ppm added): 1.8 points | Off-Flavor Intensity ([8]; 10 ppb added): 3.4 points | Off-Flavor Intensity ([8]; 10 ppm added): 1.1 points | Off-Flavor Intensity ([8]; 50 ppb added): 2.6 points | Off-Flavor Intensity ([8]; 100 ppb added): 2.9 points | Off-Flavor Intensity ([8]; 500 ppb added): 2.3 points | Off-Flavor Intensity ([9]; 1 ppm added): 1.6 points | Off-Flavor Intensity ([9]; 5 ppm added): 1.1 points | Off-Flavor Intensity ([9]; 10 ppb added): 2.8 points | Off-Flavor Intensity ([9]; 10 ppm added): 1.1 points | Off-Flavor Intensity ([9]; 50 ppb added): 2.5 points | Off-Flavor Intensity ([9]; 100 ppb added): 1.9 points | Off-Flavor Intensity ([9]; 500 ppb added): 1.5 points

C=C(C)[C@@H]1CCC2=CC(=O)C[C@@H](C)[C@]2(C)C1 [Nootkatone, nootkatone]
Off-Flavor Intensity ([1]; 1 ppb added): 2.6 points | Off-Flavor Intensity ([1]; 1 ppm added): 1.6 points | Off-Flavor Intensity ([1]; 5 ppm added): 1.1 points | Off-Flavor Intensity ([1]; 10 ppb added): 2.3 points | Off-Flavor Intensity ([1]; 10 ppm added): 0.9 points | Off-Flavor Intensity ([1]; 10 ppt added): 3.4 points | Off-Flavor Intensity ([1]; 100 ppb added): 2.1 points | Off-Flavor Intensity ([1]; 100 ppt added): 3.1 points | Off-Flavor Intensity ([3]; 1 ppb added): 2.8 points | Off-Flavor Intensity ([3]; 1 ppm added): 1.8 points | Off-Flavor Intensity ([3]; 5 ppm added): 1.1 points | Off-Flavor Intensity ([3]; 10 ppb added): 2.4 points | Off-Flavor Intensity ([3]; 10 ppm added): 0.8 points | Off-Flavor Intensity ([3]; 10 ppt added): 3.4 points | Off-Flavor Intensity ([3]; 100 ppb added): 2.1 points | Off-Flavor Intensity ([3]; 100 ppt added): 3.3 points | concentration that masks the off-flavor and does not affect the flavor of the food and/or beverage itself, lower limit [4]: ≥ 100 ppt | concentration that masks the off-flavor and does not affect the flavor of the food and/or beverage itself, upper limit [4]: ≤ 1 ppm | Off-Flavor Intensity ([5]; 1 ppb added): 2.5 points | Off-Flavor Intensity ([5]; 1 ppm added): 1.1 points | Off-Flavor Intensity ([5]; 5 ppm added): 0.6 points | Off-Flavor Intensity ([5]; 10 ppb added): 2.1 points | Off-Flavor Intensity ([5]; 10 ppm added): 0.6 points | Off-Flavor Intensity ([5]; 10 ppt added): 3.1 points | Off-Flavor Intensity ([5]; 100 ppb added): 1.5 points | Off-Flavor Intensity ([5]; 100 ppt added): 3.0 points | Off-Flavor Intensity ([7]; 1 ppb added): 3.1 points | Off-Flavor Intensity ([7]; 1 ppm added): 2.0 points | Off-Flavor Intensity ([7]; 5 ppm added): 1.3 points | Off-Flavor Intensity ([7]; 10 ppb added): 2.9 points | Off-Flavor Intensity ([7]; 10 ppm added): 0.9 points | Off-Flavor Intensity ([7]; 10 ppt added): 3.6 points | Off-Flavor Intensity ([7]; 100 ppb added): 2.4 points | Off-Flavor Intensity ([7]; 100 ppt added): 3.5 points | Off-Flavor Intensity ([8]; 1 ppb added): 2.5 points | Off-Flavor Intensity ([8]; 1 ppm added): 1.5 points | Off-Flavor Intensity ([8]; 5 ppm added): 0.9 points | Off-Flavor Intensity ([8]; 10 ppb added): 2.5 points | Off-Flavor Intensity ([8]; 10 ppm added): 0.5 points | Off-Flavor Intensity ([8]; 10 ppt added): 3.4 points | Off-Flavor Intensity ([8]; 100 ppb added): 1.8 points | Off-Flavor Intensity ([8]; 100 ppt added): 2.9 points | Off-Flavor Intensity ([9]; 1 ppb added): 2.6 points | Off-Flavor Intensity ([9]; 1 ppm added): 1.5 points | Off-Flavor Intensity ([9]; 5 ppm added): 0.6 points | Off-Flavor Intensity ([9]; 10 ppb added): 2.5 points | Off-Flavor Intensity ([9]; 10 ppm added): 0.4 points | Off-Flavor Intensity ([9]; 10 ppt added): 3.5 points | Off-Flavor Intensity ([9]; 100 ppb added): 1.9 points | Off-Flavor Intensity ([9]; 100 ppt added): 3.1 points
